# Reference: US20090137565A1, “Method for treatment of movement disorders” (The Trustees of Columbia University in the City of New York, priority 2004, published 2009)
# Legend:
# Format in all cases: in vivo, human
# [1] = system: medication-refractory, ethanol-responsive myoclonus (PHM, MD, PME); assay: Twenty-patient open-label trial of sodium oxybate, blinded UMRS (myoclonus patients); conditions: for Stim-sens. myoclonus score: dose 0 score 5.8; for Functional performance score: dose 0 score 12.9; for Action myoclonus score: dose 0 score 45.3; for Myoclonus at rest score: dose 0 score 7.4
# Text: (§1) Twenty patients age 18 or older were recruited from a clinical practice at the Movement Disorders Division of Columbia University Medical Center. Eligible patients with medication-refractory, ethanol-responsive myoclonus (6 PHM, 3 MD, 2 PME) or ET (9 patients) (Table 1) were offered enrollment from February 2004 to March 2005. The medical center's institutional review board approved the protocol, and written informed consent was obtained from all participants. All had myoclonus or ET that improved (by self-report) with ingestion of ethanol. All patients were medication-refractory, defined as obtaining inadequate benefit from best medical treatment or being unable to tolerate treatment. The dose and timing of other medications were kept constant before and during the trial.
# (§2) Twelve men and 8 women enrolled. Results from patients #6, and #s 1, 2, 7, 12, and 13 were reported previously. Frucht, S. J., et al. Mov Disord 20:745-51 (2005); Frucht, S. J., et al. Mov Disord 20:1330-7 (2005). Mean age/symptom duration was 43.9 yrs/12.3 yrs (myoclonus) and 71.2 yrs/26.7 yrs (ET). Patients with myoclonus were examined and videotaped at each visit using the Unified Myoclonus Rating Scale (UMRS), and patients with ET were examined and videotaped using the modified Washington Heights Inwood Genetic Essential Tremor Rating Scale (WHIGET; Appendix 1). Frucht, S. J., et al. Mov Disord 20:1330-7 (2005). After initial baseline examination and videotaping, patients took 1 gm of sodium oxybate by mouth (2 ml of the standard 0.5 gm/ml solution dissolved in 60 ml of water), and one hour later the videotaped examination was repeated. Patients were maintained on a dose of 1 gm T.I.D. (taken before meals) until their next office visit two weeks later, when the examination and videotaping were repeated one hour after receiving 1.5 gm of sodium oxybate. Subsequent visits and dose titrations at two-week intervals were repeated until the maximum dose was reached (3 gm T.I.D), patients were satisfied with the results of treatment, or until they developed side effects that they viewed as troublesome. Dosing for patients #1, 2, 6, 7, 12, and 13 was slightly different (1 gm BID, with dose increments of 2 gm to maximum dose of 4 gm BID), but office visits and videotaping protocol were otherwise identical.
# (§3) The entire videotape segments and writing samples from each visit were copied and randomly ordered, and identifying features that might reveal trial order or drug dose were removed. A blinded movement disorder neurologist scored each videotape segment using the UMRS or the WHIGET. Sub-scores for each visit were calculated as described previously. Frucht, S. J., et al. Mov Disord 20:1330-7 (2005). Based on data from the first two ET cases, and assuming alpha=0.05, power=80%, and a 25% reduction in post-treatment tremor severity, we calculated that eight ET cases were required. A similar number of myoclonus patients would provide >80% power to detect a 25% reduction in the severity of post-treatment action myoclonus. Paired t tests were performed for scores pre- and post-treatment.
# [2] = system: medication-refractory, ethanol-responsive ET; assay: Twenty-patient open-label trial of sodium oxybate, blinded WHIGET (ET patients); conditions: for Kinetic tremor score: dose 0 score 15.4; for Postural tremor score: dose 0 score 2.4
# Text: as §1, §2, §3
# [3] = Twenty-patient trial: side effects and tolerability; conditions: twenty patients
# Text: as §2
structure (smiles),measurement,setting,value
"O=C([O-])CCCO.[Na+] [GHB, 4-hydroxybutanoic acid monosodium salt]",Stim-sens. myoclonus score,"[1]; 1 gm, p 0.01**",3.2 (0.01)**
same,Functional performance score,"[1]; 1 gm, p 0.044*",11.0 (0.044)*
same,Action myoclonus score,"[1]; 1 gm, p 0.047*",33.4 (0.047)*
same,Functional performance score,"[1]; 1.5 gm, p 0.007*",9.6 (0.007)*
same,Stim-sens. myoclonus score,"[1]; 1.5 gm, p 0.11",3.2 (0.11)
same,Action myoclonus score,"[1]; 1.5 gm, p 0.122",26.8 (0.122)
same,Myoclonus at rest score,"[1]; 1.5 gm, p 0.247",1.2 (0.247)
same,Stim-sens. myoclonus score,"[1]; 2 gm, p 0.001**",2.8 (0.001)**
same,Action myoclonus score,"[1]; 2 gm, p 0.005*",30.9 (0.005)*
same,Myoclonus at rest score,"[1]; 2 gm, p 0.047*",3.6 (0.047)*
same,Functional performance score,"[1]; 2 gm, p <0.001**",6.0 (<0.001)**
same,Functional performance score,"[1]; 2.5 gm, p 0.002**",7.4 (0.002)**
same,Action myoclonus score,"[1]; 2.5 gm, p 0.046*",26.2 (0.046)*
same,Myoclonus at rest score,"[1]; 2.5 gm, p 0.055",0.6 (0.055)
same,Stim-sens. myoclonus score,"[1]; 2.5 gm, p <0.001**",1.4 (<0.001)**
same,Stim-sens. myoclonus score,"[1]; 3.0 gm, p 0.02*",1.0 (0.02)*
same,Functional performance score,"[1]; 3.0 gm, p 0.059",6.9 (0.059)
same,Action myoclonus score,"[1]; 3.0 gm, p 0.064",33.0 (0.064)
same,Myoclonus at rest score,"[1]; 3.0 gm, p 0.129",0.75 (0.129)
same,Myoclonus at rest score,"[1]; individ. dose 1 gm, p 0.137 vs pre-treatment",4.9 (0.137)
same,dose of maximal improvement,[1]; myoclonus measures,2.5 gm
same,Myoclonus at rest,"[1]; patient #3 (MD), after receiving 3 mg (so in the source)",disappeared
same,stimulus-sensitive myoclonus to sound and pinprick,"[1]; patient #4 (PME), after 3 gm",only stimulus-sensitive myoclonus of the right hand remained
same,action myoclonus on finger-to-nose,"[1]; patient #6 (PHM), standing unassisted now possible",significantly improved
same,Myoclonus at rest,"[1]; patient #11 (PHM), after receiving 2.5 mg (so in the source)",disappeared
same,"functional performance, using a soupspoon",[1]; patients #9 (PHM) and #5 (PME),improved
same,Kinetic tremor score,"[2]; 1 gm, p 0.011*",11.5 (0.011)*
same,Postural tremor score,"[2]; 1 gm, p 0.029*",1.7 (0.029)*
same,Postural tremor score,"[2]; 1.5 gm, p 0.001**",1.1 (0.001)**
same,Kinetic tremor score,"[2]; 1.5 gm, p 0.006**",8.8 (0.006)**
same,Postural tremor score,"[2]; 2 gm, p 0.006**",1.4 (0.006)**
same,Kinetic tremor score,"[2]; 2 gm, p 0.006**",9.1 (0.006)**
same,dose of maximal improvement,"[2]; ET, postural and kinetic tremor scores",1.5 gm
same,time at which improvement in action tremor during pouring was evident,"[2]; patient #15 (ET), after 1.5 gm",45 min
same,time at which improvement in action tremor during pouring was obvious,"[2]; patient #15 (ET), after 1.5 gm",60 min
same,"kinetic tremor during tasks (drawing, sipping water from spoon)","[2]; patient #17 (ET), FIG. 4",Improvement in kinetic tremor during tasks was evident
same,dose titration limited by ataxia,[3],20%
same,dose titration limited by sedation,[3],60%
same,"mild, transient side effect: dizziness",[3],35%
same,"mild, transient side effect: emotionality",[3],20%
same,"mild, transient side effect: headache",[3],20%
same,"mild, transient side effect: nausea",[3],10%
same,tolerability of daytime dosing,[3],acceptable
